# In US8741836B2, “Polypeptides” (Novo Nordisk A/S, priority 2011, dated 2014):
# Starred links: 1 amine or outer side, 2 acyl side, 3 side chain; linkers in the order of their positions; H or OH if unused. Positions of bridges follow the written chain, without caps; N, C: chain ends. Residues, ends and D or L forms follow the SMILES beside them. *: point of attachment. C20 diacid = O=C(O)CCCCCCCCCCCCCCCCCCC(=O)*; γGlu = O=C(O)[C@H](CCC(=O)[*:2])N[*:1]
# Experiment: Assay (III) ThT fibrillation assay for physical stability
# Format: physicochemical
# Details: for ThT pH 4.0 lag time: pH 4.0, ThT fibrillation assay
# Method in brief: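 Freshly prepared, pH-adjusted formulations with 1 μM ThT incubated at 37 °C under 960 rpm orbital shaking (1 mm), fluorescence (ex 444, em 485 nm) read every 20 min. […] Peptide content before and after measured by reverse-phase HPLC against pramlintide standard.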
ThT pH 4.0 lag time [h],ThT pH 4.0 lag time (physical stability in fibrillogenesis assay) [h],Compound
>45,,"CC[C@H](C)[C@H](NC(=O)[C@@H]1CCCN1C(=O)CNC(=O)[C@H](Cc1ccccc1)NC(=O)[C@H](CC(N)=O)NC(=O)[C@H](CC(N)=O)NC(=O)[C@H](CO)NC(=O)[C@H](CO)NC(=O)[C@H](Cc1c[nH]cn1)NC(=O)[C@H](Cc1c[nH]cn1)NC(=O)[C@H](CC(C)C)NC(=O)[C@H](Cc1ccccc1)NC(=O)[C@H](CCC(=O)O)NC(=O)[C@H](C)NC(=O)[C@H](CC(C)C)NC(=O)[C@H](CCCNC(=N)N)NC(=O)[C@H](CCC(N)=O)NC(=O)[C@@H](NC(=O)[C@H](C)NC(=O)[C@@H]1CSSC[C@H](NC(=O)[C@H](CCCNC(=N)N)NC(=O)CC[C@H](NC(=O)CCCCCCCCCCCCCCCCCCC(=O)O)C(=O)O)C(=O)N[C@@H](CC(N)=O)C(=O)N[C@@H]([C@@H](C)O)C(=O)N[C@@H](C)C(=O)N[C@@H]([C@@H](C)O)C(=O)N1)[C@@H](C)O)C(=O)N[C@@H](CC(C)C)C(=O)N1CCC[C@H]1C(=O)N1CCC[C@H]1C(=O)N[C@H](C(=O)N[C@@H](CC(N)=O)C(=O)N[C@H](C(=O)NCC(=O)N[C@@H](CO)C(=O)N[C@@H](Cc1c[nH]cn1)C(=O)N[C@H](C(=O)N[C@@H](Cc1ccc(O)cc1)C(N)=O)[C@@H](C)O)C(C)C)[C@@H](C)O [Example 95, N-alpha-[(S)-4-Carboxy-4-(19-carboxynonadecanoylamino)butyryl]-[Arg1,Glu14,His17,His35]-pramlintide] ({C20 diacid-γGlu}-RCNTATCATQRLAEFLHHSSNNFGPILPPTNVGSHTY-NH2; disulfide 2-7 (inferred))"
>45,>45,"CC[C@H](C)[C@H](NC(=O)[C@@H]1CCCN1C(=O)CNC(=O)[C@H](Cc1ccccc1)NC(=O)[C@H](CC(N)=O)NC(=O)[C@H](CC(N)=O)NC(=O)[C@H](CO)NC(=O)[C@H](CO)NC(=O)[C@H](Cc1c[nH]cn1)NC(=O)[C@H](Cc1c[nH]cn1)NC(=O)[C@H](CC(C)C)NC(=O)[C@H](Cc1ccccc1)NC(=O)[C@H](CCC(=O)O)NC(=O)[C@H](C)NC(=O)[C@H](CC(C)C)NC(=O)[C@H](CCCNC(=N)N)NC(=O)[C@H](CCC(N)=O)NC(=O)[C@@H](NC(=O)[C@H](C)NC(=O)[C@@H]1CSSC[C@H](NC(=O)[C@H](CCCCN)NC(=O)CC[C@H](NC(=O)CCCCCCCCCCCCCCCCCCC(=O)O)C(=O)O)C(=O)N[C@@H](CC(N)=O)C(=O)N[C@@H]([C@@H](C)O)C(=O)N[C@@H](C)C(=O)N[C@@H]([C@@H](C)O)C(=O)N1)[C@@H](C)O)C(=O)N[C@@H](CC(C)C)C(=O)N1CCC[C@H]1C(=O)N1CCC[C@H]1C(=O)N[C@H](C(=O)N[C@@H](CC(N)=O)C(=O)N[C@H](C(=O)NCC(=O)N[C@@H](CO)C(=O)N[C@@H](CCC(N)=O)C(=O)N[C@H](C(=O)N1CCC[C@H]1C(N)=O)[C@@H](C)O)C(C)C)[C@@H](C)O [Example 135, N-alpha-[(S)-4-Carboxy-4-(19-carboxynonadecanoylamino)butyryl]-[Glu14,His17,Gln35,Pro37]-pramlintide] ({C20 diacid-γGlu}-KCNTATCATQRLAEFLHHSSNNFGPILPPTNVGSQTP-NH2; disulfide 2-7)"
>45,>45,"CC[C@H](C)[C@H](NC(=O)[C@@H]1CCCN1C(=O)CNC(=O)[C@H](Cc1ccccc1)NC(=O)[C@H](CC(N)=O)NC(=O)[C@H](CCC(N)=O)NC(=O)[C@H](CO)NC(=O)[C@H](CO)NC(=O)[C@H](Cc1c[nH]cn1)NC(=O)[C@H](CCCNC(=N)N)NC(=O)[C@H](CC(C)C)NC(=O)[C@H](Cc1ccccc1)NC(=O)[C@H](CCC(=O)O)NC(=O)[C@H](C)NC(=O)[C@H](CC(C)C)NC(=O)[C@H](CCCNC(=N)N)NC(=O)[C@H](CCC(N)=O)NC(=O)[C@@H](NC(=O)[C@H](C)NC(=O)[C@@H]1CSSC[C@H](NC(=O)[C@H](CCC(=O)O)NC(=O)[C@H](CCCNC(=N)N)NC(=O)[C@H](CCC(=O)O)NC(=O)CC[C@H](NC(=O)CCCCCCCCCCCCCCCCCCC(=O)O)C(=O)O)C(=O)N[C@@H](CC(N)=O)C(=O)N[C@@H]([C@@H](C)O)C(=O)N[C@@H](C)C(=O)N[C@@H]([C@@H](C)O)C(=O)N1)[C@@H](C)O)C(=O)N[C@@H](CC(C)C)C(=O)N1CCC[C@H]1C(=O)N1CCC[C@H]1C(=O)N[C@H](C(=O)N[C@@H](CCC(N)=O)C(=O)N[C@H](C(=O)NCC(=O)N[C@@H](CO)C(=O)N[C@@H](CCC(N)=O)C(=O)N[C@H](C(=O)N1CCC[C@H]1C(N)=O)[C@@H](C)O)C(C)C)[C@@H](C)O [Example 163, N-alpha-[(S)-4-Carboxy-4-(19-carboxynonadecanoylamino)butyryl]-Glu-Arg-[Glu1,Glu14,Arg17,Gln21,Gln31,Gln35,Pro37]-pramlintide] ({C20 diacid-γGlu}-ERECNTATCATQRLAEFLRHSSQNFGPILPPTQVGSQTP-NH2; disulfide 4-9 (inferred))"
>45,>45,"CC[C@H](C)[C@H](NC(=O)[C@@H]1CCCN1C(=O)CNC(=O)[C@H](Cc1ccccc1)NC(=O)[C@H](CC(N)=O)NC(=O)[C@H](CC(N)=O)NC(=O)[C@H](CO)NC(=O)[C@H](CO)NC(=O)[C@H](Cc1c[nH]cn1)NC(=O)[C@H](CCCNC(=N)N)NC(=O)[C@H](CC(C)C)NC(=O)[C@H](Cc1ccccc1)NC(=O)[C@H](CCC(=O)O)NC(=O)[C@H](C)NC(=O)[C@H](CC(C)C)NC(=O)[C@H](CCCNC(=N)N)NC(=O)[C@H](CCC(N)=O)NC(=O)[C@@H](NC(=O)[C@H](C)NC(=O)[C@@H]1CSSC[C@H](NC(=O)[C@H](Cc2c[nH]cn2)NC(=O)CC[C@H](NC(=O)CCCCCCCCCCCCCCCCCCC(=O)O)C(=O)O)C(=O)N[C@@H](CC(N)=O)C(=O)N[C@@H]([C@@H](C)O)C(=O)N[C@@H](C)C(=O)N[C@@H]([C@@H](C)O)C(=O)N1)[C@@H](C)O)C(=O)N[C@@H](CC(C)C)C(=O)N1CCC[C@H]1C(=O)N1CCC[C@H]1C(=O)N[C@H](C(=O)N[C@@H](CC(N)=O)C(=O)N[C@H](C(=O)NCC(=O)N[C@@H](CO)C(=O)N[C@@H](CC(N)=O)C(=O)N[C@H](C(=O)N1CCC[C@H]1C(N)=O)[C@@H](C)O)C(C)C)[C@@H](C)O [Example 90, N-alpha-[(S)-4-Carboxy-4-(19-carboxynonadecanoylamino)butyryl]-[His1,Glu14,Arg17,Pro37]-pramlintide] ({C20 diacid-γGlu}-HCNTATCATQRLAEFLRHSSNNFGPILPPTNVGSNTP-NH2; disulfide 2-7)"
>45,,"CC[C@H](C)[C@H](NC(=O)[C@@H]1CCCN1C(=O)CNC(=O)[C@H](Cc1ccccc1)NC(=O)[C@H](CC(N)=O)NC(=O)[C@H](CC(N)=O)NC(=O)[C@H](CO)NC(=O)[C@H](CO)NC(=O)[C@H](Cc1c[nH]cn1)NC(=O)[C@H](Cc1c[nH]cn1)NC(=O)[C@H](CC(C)C)NC(=O)[C@H](Cc1ccccc1)NC(=O)[C@H](CCC(=O)O)NC(=O)[C@H](C)NC(=O)[C@H](CC(C)C)NC(=O)[C@H](CCCNC(=N)N)NC(=O)[C@H](CCC(N)=O)NC(=O)[C@@H](NC(=O)[C@H](C)NC(=O)[C@@H]1CSSC[C@H](NC(=O)[C@H](CCCCN)NC(=O)CC[C@H](NC(=O)CCCCCCCCCCCCCCCCCCC(=O)O)C(=O)O)C(=O)N[C@@H](CC(N)=O)C(=O)N[C@@H]([C@@H](C)O)C(=O)N[C@@H](C)C(=O)N[C@@H]([C@@H](C)O)C(=O)N1)[C@@H](C)O)C(=O)N[C@@H](CC(C)C)C(=O)N1CCC[C@H]1C(=O)N1CCC[C@H]1C(=O)N[C@H](C(=O)N[C@@H](CC(N)=O)C(=O)N[C@H](C(=O)NCC(=O)N[C@@H](CO)C(=O)N[C@@H](CCCNC(=N)N)C(=O)N[C@H](C(=O)N[C@@H](Cc1ccc(O)cc1)C(N)=O)[C@@H](C)O)C(C)C)[C@@H](C)O [Example 112, N-alpha-[(S)-4-Carboxy-4-(19-carboxynonadecanoylamino)butyryl]-[Glu14,His17,Arg35]-pramlintide] ({C20 diacid-γGlu}-KCNTATCATQRLAEFLHHSSNNFGPILPPTNVGSRTY-NH2; disulfide 2-7 (inferred))"
>45,>45,"CC[C@H](C)[C@H](NC(=O)[C@@H]1CCCN1C(=O)CNC(=O)[C@H](Cc1ccccc1)NC(=O)[C@H](CC(N)=O)NC(=O)[C@H](CCC(N)=O)NC(=O)[C@H](CO)NC(=O)[C@H](CO)NC(=O)[C@H](Cc1c[nH]cn1)NC(=O)[C@H](Cc1c[nH]cn1)NC(=O)[C@H](CC(C)C)NC(=O)[C@H](Cc1ccccc1)NC(=O)[C@H](CCC(=O)O)NC(=O)[C@H](C)NC(=O)[C@H](CC(C)C)NC(=O)[C@H](CCCNC(=N)N)NC(=O)[C@H](CCC(N)=O)NC(=O)[C@@H](NC(=O)[C@H](C)NC(=O)[C@@H]1CSSC[C@H](NC(=O)[C@H](CCCCN)NC(=O)CC[C@H](NC(=O)CCCCCCCCCCCCCCCCCCC(=O)O)C(=O)O)C(=O)N[C@@H](CC(N)=O)C(=O)N[C@@H]([C@@H](C)O)C(=O)N[C@@H](C)C(=O)N[C@@H]([C@@H](C)O)C(=O)N1)[C@@H](C)O)C(=O)N[C@@H](CC(C)C)C(=O)N1CCC[C@H]1C(=O)N1CCC[C@H]1C(=O)N[C@H](C(=O)N[C@@H](CC(N)=O)C(=O)N[C@H](C(=O)NCC(=O)N[C@@H](CO)C(=O)N[C@@H](CC(N)=O)C(=O)N[C@H](C(=O)N1CCC[C@H]1C(N)=O)[C@@H](C)O)C(C)C)[C@@H](C)O [Example 130, N-alpha-[(S)-4-Carboxy-4-(19-carboxynonadecanoylamino)butyryl]-[Glu14,His17,Gln21,Pro37]-pramlintide] ({C20 diacid-γGlu}-KCNTATCATQRLAEFLHHSSQNFGPILPPTNVGSNTP-NH2; disulfide 2-7)"
